Data taken from patent US20120316342A1, “THERAPEUTIC AGENT FOR HEPATITIS C” (priority 2010, published 2012).

What was measured:
[1] = tested on: #50-1 (subgenomic replion) cells; test: Anti-HCV activity using subgenomic replicon cells (HCV genomic RNA, real-time RT-PCR); type: cell-based; details: for EC50: HCV genomic RNA level, 3 days; for anti-HCV activity (in words): Table 1
Description: (§1) The 70% confluent #50-1 (subgenomic replion) cells or NNC #2 (full-length replicon) cells (Ishii et al., J. Virol., 2006, vol. 80, pp. 4510-4520) were dispersed in a culture bottle with the aid of trypsin, and the resulting dispersion was resuspended in a high-glucose Dulbecco's modified Eagle medium (DMEM) containing 10% FCS and 1 mg/ml G418 (Sigma) (see FIGS. 1 and 2). The cell suspension adjusted at 5×10^4 cells/ml with the use thereof was added to wells of a 96-well culture plate at 100 μl/well (the final cell density in each well: […]), and culture was conducted at 37° C. Supernatants of culture media were removed from wells of the plate on the following day, 200 μl each of the solutions of test compounds appropriately diluted with a G418-free culture solution were added, and culture was further continued. Samples were prepared from cells in each well 3 days later with the use of the TaqMan® Gene Expression Cell-to-CT® (Applied Biosystems). Reverse transcription was carried out in accordance with the protocols for the ABI 7500 PCR systems (Applied Biosystems) at 37° C. for 60 minutes, 95° C. for 5 minutes, and retained at 4° C. Real-time PCR was carried out in accordance with the protocols for the ABI 7500 real-time PCR systems (Applied Biosystems) at 50° C. for 2 minutes, 95° C. for 10 minutes, 40 cycles at 95° C. for 15 seconds, and 60° C. for 1 minute.
(§2) In accordance with the method mentioned above, the level of the HCV genomic RNA and, as the internal standard, the level of mRNA of glyceraldehyde-3-phosphate dehydrogenase (GAPDH) (a house keeping gene of the host cells) were assayed, and a percentage (%) relative to the level of RNA of a control group to which the test compound was not administered was determined. The dose-response relationship of the test compound was analyzed based on the measured level of the HCV genomic RNA to determine EC50, and the dose-response relationship of the test compound was analyzed based on the measured level of GAPDH RNA to determine CC50. The term “EC50” and “CC50” used herein refers to 50% effective concentration (μM) and 50% cytotoxic concentration (μM), respectively.

[2] = Cytotoxicity in subgenomic replicon cells (GAPDH mRNA, real-time RT-PCR); type: cell-based; details: human, #50-1 (subgenomic HCV replicon) cells, GAPDH RNA level
Description: as §1, §2

[3] = tested on: Subgenomic HCV RNA replicon cells (LucNeo#2) having a luciferase gene; test: Anti-HCV activity using replicon cells (luciferase assay); type: cell-based; details: Hepatitis C virus, 72 h
Description: Subgenomic HCV RNA replicon cells (LucNeo#2, Goto et al., Biochem. Biophys. Res. Commun., 2006, vol. 343, pp. 879-884) having a luciferase gene were suspended in a Dulbecco's modified Eagle medium (DMEM) containing 10% FBS and 1 mg/ml G418 (Sigma). The cells were incubated for 24 hours and then cultured in G418-free fresh media each containing test compounds at various concentrations for 3 days. In order to perform luciferase assays, the cells were washed with PBS and treated with a lysate for 10 minutes with intermittent agitation. A cell lysate (25 μl) was transferred to a white microtiter plate. Luciferase assay reagents (100 μl, Promega, Tokyo) were added to each well and the luciferase activity was measured with a luminometer.
(§3) Based on the luciferase assay results, the HCV genomic RNA level was measured, and a percentage (%) relative to the level of RNA of a control group to which the test compound was not administered was determined. Based on the results of tetrazolium staining, cell survival rates (%) of the group to which the test compound had been administered and of a control group were determined. The dose-response relationship of the test compound was analyzed based on the results of quantitative luciferase assays to determine EC50(μM), and the dose-response relationship of the test compound was analyzed based on the results of tetrazolium staining to determine CC50.

[4] = Cytotoxicity (cell survival rate) by tetrazolium staining in luciferase replicon cells; type: cell-based; details: human, subgenomic HCV RNA replicon cells (LucNeo#2), LucNeo#2 subgenomic replicon cells
Description: A tetrazolium staining solution (10 μl, Seikagaku Corporation, Tokyo) was added to each well in order to examine cytotoxicity (a cell survival rate). After the cells were incubated for 1 hour, the absorbance at the characteristic absorption wavelength (450 nm) was measured with the use of a microplate reader.
as §3

[5] = tested on: NNC #2 (full-length replicon) cells; test: Anti-HCV activity using full-length replicon cells (HCV genomic RNA, real-time RT-PCR); type: cell-based; details: for anti-HCV activity (in words): FIGS. 3 to 6; for EC50: HCV genomic RNA level, 3 days
Description: as §1, §2

[6] = tested on: #50-1 (subgenomic replion) cells; test: Cytotoxicity in subgenomic replicon cells (GAPDH mRNA, real-time RT-PCR); type: cell-based; details: GAPDH RNA level, 3 days
Description: as §1, §2

[7] = tested on: NNC #2 (full-length replicon) cells; test: Cytotoxicity in full-length replicon cells (GAPDH mRNA, real-time RT-PCR); type: cell-based; details: GAPDH RNA level, 3 days
Description: (§4) The 70% confluent #50-1 (subgenomic replion) cells or NNC #2 (full-length replicon) cells (Ishii et al., J. Virol., 2006, vol. 80, pp. 4510-4520) were dispersed in a culture bottle with the aid of trypsin, and the resulting dispersion was resuspended in a high-glucose Dulbecco's modified Eagle medium (DMEM) containing 10% FCS and 1 mg/ml G418 (Sigma) (see FIGS. 1 and 2). The cell suspension adjusted at 5×10^4 cells/ml with the use thereof was added to wells of a 96-well culture plate at 100 μl/well (the final cell density in each well: […]), and culture was conducted at 37° C. […]
(§5) In accordance with the method mentioned above, the level of the HCV genomic RNA and, as the internal standard, the level of mRNA of glyceraldehyde-3-phosphate dehydrogenase (GAPDH) (a house keeping gene of the host cells) were assayed, and a percentage (%) relative to the level of RNA of a control group to which the test compound was not administered was determined. The dose-response relationship of the test compound was analyzed based on the measured level of the HCV genomic RNA to determine EC50, and the dose-response relationship of the test compound was analyzed based on the measured level of GAPDH RNA to determine CC50. […]

HCV replicon cells = details: inhibiting the replication of the HCV genome, Non-Patent Document 8; cited from earlier work
[8] = Cytotoxicity in full-length replicon cells (GAPDH mRNA, real-time RT-PCR); type: cell-based; details: human, NNC #2 (full-length HCV replicon) cells, GAPDH RNA level
Description: as §4, §5

| SMILES | EC50 ([1]; Hepatitis C virus, 72 h) [µM] | CC50 at 3 days [2] [µM] | CC50 [6] [µM] | further results |
| --- | --- | --- | --- | --- |
| CCCCn1c(=O)c2ccccc2c2cc3ccccc3cc21 [MN313-B, 6-butylbenzo[b]phenanthridin-5(6H)-one] | 3.2 | 6.3 | – | anti-HCV activity (in words) [1]: very high degree of anti-HCV activity at non-cytotoxic concentrations |
| CCCCn1c(=O)c2ccccc2c2c(OC)c(C(O)(C(F)(F)F)C(F)(F)F)ccc21 [KZ34, 5-butyl-2-(1′,1′,1′,3′,3′,3′-hexafluoro-2′-hydroxypropan-2-yl)-1-methoxy-phenanthridin-6(5H)-one] | – | – | – | EC50 [3]: 7.2 µM; CC50 at 3 days [4]: 25.3 µM |
| CCCCn1c(=O)c2ccccc2c2cc(C(O)(C(F)(F)F)C(F)(F)F)ccc21 [AA-24, 2-(1′,1′,1′,3′,3′,3′-hexafluoro-2′-hydroxypropan-2′-yl)-5-butyl-phenanthridin-6(5H)-one] | – | – | 20.5 | anti-HCV activity (in words) [5]: high degree of anti-HCV activity; EC50 [5]: 2.8 µM; EC50 [1]: 4 µM; CC50 [7]: 11.9 µM |
| CCCCn1c(=O)c2ccccc2c2c3ccccc3ccc21 [MN313-A, 6-butylbenzo[a]phenanthridin-5(6H)-one] | 29.1 | – | 44.5 | anti-HCV activity (in words) [1]: very high degree of anti-HCV activity at non-cytotoxic concentrations |
| CCCCn1c(=O)c2cc3ccccc3cc2c2ccccc21 [MN314-B, 5-butylbenzo[j]phenanthridin-6(5H)-one] | – | 33.5 | > 40 | anti-HCV activity (in words) [1]: very high degree of anti-HCV activity at non-cytotoxic concentrations |
| CCCCn1c(=O)c2ccc3ccccc3c2c2ccccc21 [MN314-A, 5-butylbenzo[k]phenanthridin-6(5H)-one] | > 31.4 | – | 31.4 | – |
| CCCCn1c(=O)c2c3ccccc3ccc2c2ccccc21 [MN306, 6-butylbenzo[i]phenanthridin-5(6H)-one] | 29.9 | > 40 | – | anti-HCV activity (in words) [1]: very high degree of anti-HCV activity at non-cytotoxic concentrations |
| CCCCn1c(=O)c2ccccc2c2cc3c(cc21)C(C)(C)CCC3(C)C [MN256, 6-butyl-8,9,10,11-tetrahydro-8,8,11,11-tetramethylbenzo[2,3-b]phenanthridin-5(6H)-one] | 5 | 31.7 | – | – |
| COc1cc(NC(=O)Nc2cccc(CNC(=O)O[C@H]3CCOC3)c2)ccc1-c1cnco1 [VX497] | – | – | – | IC50 (HCV replicon cells): 0.5 µM |
| CCCCn1c(=O)c2ccccc2c2cc(C(C)(C)C)ccc21 [MN325, 5-butyl-2-tert-butylphenanthridin-6(5H)-one] | 6.1 | 34.4 | – | – |
| O=c1c2ccccc2c2cc(C(O)(C(F)(F)F)C(F)(F)F)ccc2n1Cc1ccccc1 [AA-04, 2-(1′,1′,1′,3′,3′,3′-hexafluoro-2′-hydroxypropan-2′-yl)-5-benzylphenanthridin-6(5H)-one] | – | – | – | anti-HCV activity (in words) [5]: high degree of anti-HCV activity |
| CCCCn1c(=O)c2ccccc2c2ccc3ccccc3c21 [MN305, 5-butylbenzo[c]phenanthridin-6(5H)-one] | 19.5 | – | 24.3 | – |
| CCCCCCn1c(=O)c2ccccc2c2cc(C(O)(C(F)(F)F)C(F)(F)F)ccc21 [AA-25, 2-(1′,1′,1′,3′,3′,3′-hexafluoro-2′-hydroxypropan-2′-yl)-5-hexylphenanthridin-6(5H)-one] | – | – | – | anti-HCV activity (in words) [5]: high degree of anti-HCV activity |
| CCCCn1c(=O)c2ccccc2c2cc(C(C)C)ccc21 [PN-iPr, 5-butyl-2-isopropylphenanthridin-6(5H)-one] | 4 | 20.5 | – | EC50 ([5]; Hepatitis C virus, NNC2, 72 h): 16.4 µM; CC50 at 3 days [8]: 27.7 µM |
